{"source": "ChEMBL document CHEMBL5050844", "about": "(2019)", "key": {"[1]": {"assay": "Induction of anti-CD3 antibodies-stimulated human CD8+ T cell activation at 10 uM assessed fold increase in cell proliferation measured by flow cytometry analysis; note: reference of the scale not given here", "type": "functional, T cell line"}, "[2]": {"assay": "Induction of activation of human CD56+ CD3- NK cells co-cultured with human K562 cells in 1:1 ratio and assessed as increase in MIP1beta secretion at 10 uM measured by ELISA assay", "type": "functional, Natural killer cell"}, "[3]": {"assay": "Induction of activation of human CD56+ CD3- NK cells co-cultured with human K562 cells in 5:1 ratio and assessed as increase in IFN-gamma secretion at 1 uM measured by ELISA assay", "type": "functional, Natural killer cell"}, "[4]": {"assay": "Induction of anti-CD3/CD28 antibodies-stimulated human anergic T cell activation at 1.11 uM assessed fold increase in IFN-gamma secretion measured by ELISA assay", "type": "functional, T cell line"}, "[5]": {"assay": "Induction of activation of human CD56+ CD3- NK cells co-cultured with human K562 cells in 5:1 ratio and assessed as increase in IFN-gamma secretion at 10 uM measured by ELISA assay", "type": "functional, Natural killer cell"}, "[6]": {"assay": "Induction of activation of human CD56+ CD3- NK cells co-cultured with human K562 cells in 5:1 ratio and assessed as increase in TNF-alpha secretion at 10 uM measured by ELISA assay", "type": "functional, Natural killer cell"}, "[7]": {"assay": "Induction of anti-CD3 antibodies-stimulated human exhausted T cell activation assessed fold increase in IFN-gamma secretion measured by ELISA assay; note: reference of the scale not given here", "type": "functional, T cell line"}, "[8]": {"assay": "Induction of activation of human CD56+ CD3- NK cells co-cultured with human K562 cells in 1:1 ratio and assessed as increase in TNF-alpha secretion at 2.5 uM measured by ELISA assay", "type": "functional, Natural killer cell"}, "[9]": {"assay": "Induction of activation of human CD56+ CD3- NK cells co-cultured with human K562 cells in 1:1 ratio and assessed as increase in TNF-alpha secretion at 1 uM measured by ELISA assay", "type": "functional, Natural killer cell"}, "[10]": {"assay": "Induction of anti-CD3/CD28 antibodies-stimulated human CD8+ T cell activation at 10 uM assessed fold increase in CD69 expression measured by flow cytometry analysis", "type": "functional, T cell line"}, "[11]": {"assay": "Induction of anti-CD3/CD28 antibodies-stimulated human CD4+ T cell activation at 10 uM assessed fold increase in cell proliferation measured by flow cytometry analysis", "type": "functional, T cell line"}, "[12]": {"assay": "Induction of anti-CD3 antibodies-stimulated human CD8+ T cell activation in immunocompetent mouse assessed fold increase in CD25 expression at 90 mg/kg, ip administered thrice a day; note: reference of the scale not given here", "type": "functional"}, "[13]": {"assay": "Induction of activation of human CD56+ CD3- NK cells co-cultured with human K562 cells in 5:1 ratio and assessed as increase in MIP1beta secretion at 1 uM measured by ELISA assay", "type": "functional, Natural killer cell"}, "[14]": {"assay": "Induction of anti-CD3 antibodies-stimulated human CD4+ T cell activation in immunocompetent mouse assessed fold increase in CD25 expression at 90 mg/kg, ip administered twice a day; note: reference of the scale not given here", "type": "functional"}, "[15]": {"assay": "Induction of anti-CD3/CD28 antibodies-stimulated human CD4+ T cell activation at 1.11 uM assessed fold increase in cell proliferation measured by flow cytometry analysis", "type": "functional, T cell line"}, "[16]": {"assay": "Induction of anti-CD3 antibodies-stimulated human CD8+ T cell activation at 1.11 uM assessed fold increase in CD69 expression measured by flow cytometry analysis; note: reference of the scale not given here", "type": "functional, T cell line"}, "[17]": {"assay": "Induction of activation of human CD56+ CD3- NK cells co-cultured with human K562 cells in 5:1 ratio and assessed as increase in TNF-alpha secretion at 1 uM measured by ELISA assay", "type": "functional, Natural killer cell"}, "[18]": {"assay": "Induction of activation of human CD56+ CD3- NK cells co-cultured with human K562 cells in 5:1 ratio and assessed as increase in MIP1beta secretion at 10 uM measured by ELISA assay", "type": "functional, Natural killer cell"}, "[19]": {"assay": "Induction of anti-CD3/CD28 antibodies-stimulated human T cell activation at 4 uM assessed fold increase in IL-2 secretion measured by ELISA assay", "type": "functional, T cell line"}, "[20]": {"assay": "Induction of activation of human CD56+ CD3- NK cells co-cultured with human K562 cells in 1:1 ratio and assessed as increase in IFN-gamma secretion at 1 uM measured by ELISA assay", "type": "functional, Natural killer cell"}, "[21]": {"assay": "Induction of activation of human CD56+ CD3- NK cells co-cultured with human K562 cells in 1:1 ratio and assessed as increase in MIP1beta secretion at 1 uM measured by ELISA assay", "type": "functional, Natural killer cell"}, "[22]": {"assay": "Induction of allogenic human T cell activation at 3 uM assessed fold increase in cell proliferation", "type": "functional, T cell line"}, "[23]": {"assay": "Induction of anti-CD3/CD28 antibodies-stimulated human T cell activation at 1.11 uM assessed fold increase in TNF-alpha secretion measured by ELISA assay", "type": "functional, T cell line"}, "[24]": {"assay": "Induction of anti-CD3/CD28 antibodies-stimulated human T cell activation at 10 uM assessed fold increase in IFN-gamma secretion measured by ELISA assay", "type": "functional, T cell line"}, "[25]": {"assay": "Induction of anti-CD3/CD28 antibodies-stimulated human T cell activation at 10 uM assessed fold increase in GM-CSF secretion measured by ELISA assay", "type": "functional, T cell line"}, "[26]": {"assay": "Induction of anti-CD3 antibodies-stimulated human T cell activation at 1.11 uM assessed fold increase in IFN-gamma secretion measured by ELISA assay; note: reference of the scale not given here", "type": "functional, T cell line"}, "[27]": {"assay": "Induction of anti-CD3 antibodies-stimulated human T cell activation at 1.11 uM assessed fold increase in TNF-alpha secretion measured by ELISA assay; note: reference of the scale not given here", "type": "functional, T cell line"}}, "data": [{"compound": "C[C@@H](Sc1nncn1C)c1cccc(NC(=O)c2cccc(C(F)(F)F)n2)c1", "values": [{"measurement": "fold change (FC)", "setting": "[1]", "value": ">4"}, {"measurement": "fold change (FC)", "setting": "[2]", "value": 1.01}, {"measurement": "fold change (FC)", "setting": "[3]", "value": "<=1"}, {"measurement": "fold change (FC)", "setting": "[4]", "value": "<=2.5"}, {"measurement": "fold change (FC)", "setting": "[5]", "value": 1.01}, {"measurement": "fold change (FC)", "setting": "[6]", "value": "<=1"}, {"measurement": "fold change (FC)", "setting": "[7]", "value": "<=1.4"}, {"measurement": "fold change (FC)", "setting": "[8]", "value": 1.01}, {"measurement": "fold change (FC)", "setting": "[9]", "value": 1.01}, {"measurement": "fold change (FC)", "setting": "[10]", "value": 1.201}, {"measurement": "fold change (FC)", "setting": "[11]", "value": ">4"}, {"measurement": "fold change (FC)", "setting": "[12]", "value": 1}, {"measurement": "fold change (FC)", "setting": "[13]", "value": "<=1"}, {"measurement": "fold change (FC)", "setting": "[14]", "value": 1.51}, {"measurement": "fold change (FC)", "setting": "[15]", "value": 3.01}, {"measurement": "fold change (FC)", "setting": "[16]", "value": 1.201}, {"measurement": "fold change (FC)", "setting": "[17]", "value": "<=1"}, {"measurement": "fold change (FC)", "setting": "[18]", "value": 1.01}, {"measurement": "fold change (FC)", "setting": "[19]", "value": 1.01}, {"measurement": "fold change (FC)", "setting": "[20]", "value": "<=1"}, {"measurement": "fold change (FC)", "setting": "[21]", "value": 1.01}, {"measurement": "fold change (FC)", "setting": "[22]", "value": "<=2"}]}, {"compound": "C[C@H](Sc1nncn1C)c1cccc(NC(=O)c2cccc(C(F)(F)F)n2)c1", "values": [{"measurement": "fold change (FC)", "setting": "[1]", "value": "<=2"}, {"measurement": "fold change (FC)", "setting": "[2]", "value": 1.01}, {"measurement": "fold change (FC)", "setting": "[23]", "value": 1.51}, {"measurement": "fold change (FC)", "setting": "[3]", "value": 1.01}, {"measurement": "fold change (FC)", "setting": "[4]", "value": 2.51}, {"measurement": "fold change (FC)", "setting": "[24]", "value": "<=2"}, {"measurement": "fold change (FC)", "setting": "[5]", "value": 2.01}, {"measurement": "fold change (FC)", "setting": "[25]", "value": 2.01}, {"measurement": "fold change (FC)", "setting": "[6]", "value": 2.01}, {"measurement": "fold change (FC)", "setting": "[7]", "value": "<=1.4"}, {"measurement": "fold change (FC)", "setting": "[8]", "value": 1.01}, {"measurement": "fold change (FC)", "setting": "[9]", "value": 1.01}, {"measurement": "fold change (FC)", "setting": "[10]", "value": "<=1.2"}, {"measurement": "fold change (FC)", "setting": "[11]", "value": "<=2"}, {"measurement": "fold change (FC)", "setting": "[26]", "value": "<=2"}, {"measurement": "fold change (FC)", "setting": "[12]", "value": 1.51}, {"measurement": "fold change (FC)", "setting": "[13]", "value": "<=1"}, {"measurement": "fold change (FC)", "setting": "[14]", "value": 1}, {"measurement": "fold change (FC)", "setting": "[15]", "value": "<=2"}, {"measurement": "fold change (FC)", "setting": "[16]", "value": "<=1.2"}, {"measurement": "fold change (FC)", "setting": "[17]", "value": 1.01}, {"measurement": "fold change (FC)", "setting": "[27]", "value": 1.51}, {"measurement": "fold change (FC)", "setting": "[18]", "value": 1.01}, {"measurement": "fold change (FC)", "setting": "[19]", "value": ">=7.5"}, {"measurement": "fold change (FC)", "setting": "[20]", "value": 1.01}, {"measurement": "fold change (FC)", "setting": "[21]", "value": 1.01}, {"measurement": "fold change (FC)", "setting": "[22]", "value": "<=2"}]}]}
